Measured values as given in ChEMBL document CHEMBL1201862, “PubChem BioAssay data set” (2004).
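Test compounds were applied to cells in 96-well plates for 48 hours at 5 doses. GI50 is the concentration that inhibits growth by half.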 Calls of active or inactive are those of the source. Rule as the data show it: active = GI50 up to about 1.1 µM and inactive = higher.

What was measured:
Test in all cases: NCI-60 cell line screen, 48 h
ACHN = tested on: ACHN
SN12C = tested on: SN12C
SR = tested on: SR
PC-3 = tested on: PC-3
Hs-578T = tested on: Hs-578T
UACC-62 = tested on: UACC-62
SNB-75 = tested on: SNB-75
SNB-19 = tested on: SNB-19
COLO 205 = tested on: COLO 205
A549 = tested on: A549
U-251 = tested on: U-251
HCT-15 = tested on: HCT-15
DU-145 = tested on: DU-145
SW-620 = tested on: SW-620
HCC 2998 = tested on: HCC 2998
MDA-MB-435 = tested on: MDA-MB-435
SF-268 = tested on: SF-268
SK-MEL-2 = tested on: SK-MEL-2
NCI-H23 = tested on: NCI-H23
SF-539 = tested on: SF-539
NCI-H226 = tested on: NCI-H226
MDA-MB-231 = tested on: MDA-MB-231
T47D = tested on: T47D
OVCAR-8 = tested on: OVCAR-8
SF-295 = tested on: SF-295
HOP-62 = tested on: HOP-62
NCI-H460 = tested on: NCI-H460
MDA-N = tested on: MDA-N
EKVX = tested on: EKVX
CCRF-CEM = tested on: CCRF-CEM
HCT-116 = tested on: HCT-116
SK-MEL-5 = tested on: SK-MEL-5
OVCAR-4 = tested on: OVCAR-4
TK-10 = tested on: TK-10
UACC-257 = tested on: UACC-257
IGROV-1 = tested on: IGROV-1
MCF7 = tested on: MCF7
HT-29 = tested on: HT-29
NCI/ADR-RES = tested on: NCI/ADR-RES
786-0 = tested on: 786-0
SK-MEL-28 = tested on: SK-MEL-28
Malme-3M = tested on: Malme-3M
UO-31 = tested on: UO-31
MOLT-4 = tested on: MOLT-4
KM12 = tested on: KM12
LOX IMVI = tested on: LOX IMVI
RXF 393 = tested on: RXF 393
BT-549 = tested on: BT-549
HOP-92 = tested on: HOP-92
CAKI-1 = tested on: CAKI-1

SMILES: COC(=O)c1cn(CCCCO)nn1
- GI50 (ACHN): > 100 µM (inactive)
- GI50 (SN12C): > 100 µM (inactive)
- GI50 (SR): > 100 µM (inactive)
- GI50 (PC-3): > 100 µM (inactive)
- GI50 (Hs-578T): > 100 µM (inactive)
- GI50 (UACC-62): > 100 µM (inactive)
- GI50 (SNB-75): > 100 µM (inactive)
- GI50 (SNB-19): > 100 µM (inactive)
- GI50 (COLO 205): > 100 µM (inactive)
- GI50 (A549): > 100 µM (inactive)
- GI50 (U-251): > 100 µM (inactive)
- GI50 (HCT-15): > 100 µM
- GI50 (DU-145): > 100 µM (inactive)
- GI50 (SW-620): > 100 µM (inactive)
- GI50 (HCC 2998): > 100 µM (inactive)
- GI50 (MDA-MB-435): > 100 µM (inactive)
- GI50 (SF-268): > 100 µM (inactive)
- GI50 (SK-MEL-2): > 100 µM (inactive)
- GI50 (NCI-H23): > 100 µM (inactive)
- GI50 (SF-539): > 100 µM (inactive)
- GI50 (NCI-H226): > 100 µM (inactive)
- GI50 (MDA-MB-231): > 100 µM (inactive)
- GI50 (T47D): 3.65 µM (inactive)
- GI50 (OVCAR-8): > 100 µM (inactive)
- GI50 (SF-295): > 100 µM (inactive)
- GI50 (HOP-62): > 100 µM (inactive)
- GI50 (NCI-H460): > 100 µM (inactive)
- GI50 (MDA-N): > 100 µM (inactive)
- GI50 (EKVX): > 100 µM (inactive)
- GI50 (CCRF-CEM): > 100 µM (inactive)
- GI50 (HCT-116): > 100 µM (inactive)
- GI50 (SK-MEL-5): > 100 µM (inactive)
- GI50 (OVCAR-4): > 100 µM (inactive)
- GI50 (TK-10): > 100 µM (inactive)
- GI50 (UACC-257): > 100 µM (inactive)
- GI50 (IGROV-1): > 100 µM (inactive)
- GI50 (MCF7): > 100 µM (inactive)
- GI50 (HT-29): > 100 µM (inactive)
- GI50 (NCI/ADR-RES): > 100 µM (inactive)
- GI50 (786-0): > 100 µM (inactive)
- GI50 (SK-MEL-28): > 100 µM (inactive)
- GI50 (Malme-3M): > 100 µM (inactive)
- GI50 (UO-31): > 100 µM (inactive)
- GI50 (MOLT-4): > 100 µM (inactive)
- GI50 (KM12): > 100 µM (inactive)
- GI50 (LOX IMVI): > 100 µM (inactive)
- GI50 (RXF 393): > 100 µM (inactive)
- GI50 (BT-549): > 100 µM (inactive)
- GI50 (HOP-92): > 100 µM (inactive)
- GI50 (CAKI-1): > 100 µM (inactive)
